Data as given in patent US20250136649A1, “HONEY TRUFFLE SWEETENER (HTS) VARIANTS” (MYCOTECHNOLOGY, INC., priority 2023, published 2025).
Where two headings read alike, the source gives them in different places.

Assays:
[1] = system: sweetness and flavor perception; test: Tasting of HTS sweetener blends in citric acid solution, lemon/lime soda, almond milk, chocolate spread; assay type: in vivo, human
Protocol: Sucrose is the standard for sweetness intensity perception in the food and beverage industry. […] With regard to the following Examples 18-38, sucrose equivalent (SE) values of non-sucrose sweeteners were calculated from Dubois et al. (1991) and cross referenced with other studies (Wee, M., Tan, V., & Forde, C. (2018). A Comparison of Psychophysical Dose-Response Behaviour across 16 Sweeteners. Nutrients, 10 (11), 1632).
DE Walters, FT Orthoefer, GE DuBois, pp. 261-276. Washington, DC: Am. Chem. Soc).
An HTS sweetness concentration response curve was developed. These values were used to determine approximate sucrose equivalents for the following blending examples (Examples 18-37).
HTS ((0.0 mg/mL, 0.007 mg/mL, 0.015 mg/mL and 0.035 mg/mL) and sucrose (8% w/w, 6% w/w, 4% w/w, and 2% w/w (respectively)) were added to a citric acid solution. The sweetener mixture was compared to a control with only sucrose added to the matrix. The sweetener mix was expected to be as sweet as or sweeter than the sucrose control for this matrix. Of total perceived sweetness intensity in each of the experimental samples in Table 11, 75% comes from sucrose and 25% comes from HTS, 50% comes from sucrose and 50% comes from HTS, 25% comes from sucrose and 75% comes from HTS, respectively.
HTS ((0.0 mg/mL, 0.008 mg/mL, 0.023 mg/mL and 0.064 mg/mL) and sucrose (10% w/w, 7.5% w/w, 5% w/w, and 2.5% w/w (respectively)) were added to a lemon/lime soda. The sweetener mixture was compared to a control with only sucrose added to the matrix. The sweetener mix was expected to be as sweet as or sweeter than the sucrose control for this matrix. Of total perceived sweetness intensity in each of the experimental samples in Table 12, 75% comes from sucrose and 25% comes from HTS, 50% comes from sucrose and 50% comes from HTS, 25% comes from sucrose and 75% comes from HTS, respectively.
HTS ((0.0 mg/mL, 0.005 mg/mL, 0.007 mg/mL and 0.010 mg/mL) and sucrose (4% w/w, 3.0% w/w, 2% w/w, and 1.0% w/w (respectively)) were added to an unsweetened almond milk. The sweetener mixture was compared to a control with only sucrose added to the matrix. The sweetener mix was expected to be as sweet as or sweeter than the control for this matrix. Of total perceived sweetness intensity in each of the experimental samples in Table 13, 75% comes from sucrose and 25% comes from HTS, 50% comes from sucrose and 50% comes from HTS, 25% comes from sucrose and 75% comes from HTS, respectively.
HTS ((0.0 mg/mL, 0.008 mg/mL, 0.023 mg/mL and 0.064 mg/mL) and sucrose (45% w/w, 33.8% w/w, 23% w/w, and 11.3% w/w (respectively)) were added to a chocolate spread. The sweetener mixture was compared to a control with only sucrose added to the matrix. The sweetener mix was expected to be as sweet as or sweeter than the control for this matrix. Of total perceived sweetness intensity in each of the experimental samples in Table 14, 75% comes from sucrose and 25% comes from HTS, 50% comes from sucrose and 50% comes from HTS, 25% comes from sucrose and 75% comes from HTS, respectively.
HTS ((0.0 mg/mL, 0.007 mg/mL, 0.015 mg/mL and 0.035 mg/mL) and erythritol (11.43% w/w, 8.57% w/w, 5.71% w/w, and 2.86% w/w (respectively)) were added to a citric acid solution. The sweetener mixture was compared to a control with only erythritol added to the matrix. The sweetener mix was expected to be as sweet as or sweeter than the control for this matrix. Of total perceived sweetness intensity in each of the experimental samples in Table 15, 75% comes from erythritol and 25% comes from HTS, 50% comes from erythritol and 50% comes from HTS, 25% comes from erythritol and 75% comes from HTS, respectively.

sweet taste = settings: cited from earlier work; for potency curve multiplier relative to sucrose: linear potency curve similar to sucrose (DuBois 1991)
perception of the flavor = test: Tasting of HTS flavor modifying compositions in a mock beverage matrix; assay type: in vivo, human; settings: pH about 3, 0.25% w/w lemon/lime flavor, HTS 0.004 mg/mL
Protocol: HTS (0.004 mg/mL) and sucrose (10% w/w concentration) were added to a mock beverage matrix (citric acid, a flavor and carbonation). […] HTS and sucrose were added to hit a target of 10% w/w sucrose equivalent sweetness. The HTS/sucrose mixture was compared to an unsweetened control, an unsweetened control+0.004 mg/mL HTS, and a sucrose sweetened control (10% w/w concentration of sucrose).
(§1) HTS (0.004 mg/mL) and erythritol (13.3% w/w concentration) were added to a mock beverage matrix (citric acid, a flavor, and carbonation). […] HTS and erythritol were added to hit a target of 10% w/w sucrose equivalent sweetness. The HTS/erythritol mixture was compared to an unsweetened control, an unsweetened control+0.004 mg/mL HTS, and an erythritol sweetened control (13.3% w/w concentration).
as §1, with “sucralose (0.0387%” for “erythritol (13.3%”, “sucralose” for “erythritol”, “HTS/sucralose” for “HTS/erythritol”, “a sucralose” for “an erythritol”, “(0.0387%” for “(13.3%”
HTS (0.004 mg/mL) and stevia (0.0395% w/w concentration) were added to a mock beverage matrix (citric acid, a flavor, and carbonation). […] HTS and stevia were added to hit a target of 10% w/w sucrose equivalent sweetness. […]

sweet taste response = test: Concentration-response functions for sweet taste (Opertech Bio); assay type: in vivo; settings: for Relative to Sucrose (mM): equivalency to sucrose on a molar basis; for Relative to Sucrose (mg/ml): equivalency to sucrose on a weight basis; for EC50: half-maximal sweet taste response
Protocol: Each data point in the curves for mycodulcein, aspartame, thaumatin, rebaudioside A was calculated as the average across 32 replicates and averaged across 16 replicates for the sucrose curve; error bars are SEM. Points for water and sucrose controls were similarly calculated as the average across 128 and 64 replicates, respectively. Curves were fit by non-linear regression.
Opertech Bio (Philadelphia, PA) performed a quantitative characterization of the concentration-dependence of the taste properties of the purified his-tagged mycodulcein HTS (SEQ ID NO:141 with His-tag, SEQ ID NO:142) obtained from E. coli as described in Example 5 and purified as described in Example 4. The sweet-taste potency and relative efficacy of mycodulcein (HTS) was compared with sucrose and with other sweeteners thaumatin, rebaudioside A, and aspartame. Control standards were solutions of 200 mM sucrose, 100 mM NaCl, 0.5 mM quinine, and 10 mM citric acid. […] Each data point in the curves for mycodulcein, aspartame, thaumatin, and rebaudioside A was calculated as the average across 32 replicates and averaged across 16 replicates for the sucrose curve; error bars are SEM. Points for water and sucrose controls were similarly calculated as the average across 128 and 64 replicates, respectively. Curves were fit by non-linear regression.
The concentrations that elicit half-maximal sweet taste response (EC50s, or potencies) were derived from the nonlinear regression. […] Also provided are the equivalencies to sucrose on a molar basis and on a weight basis.

sweet sensation = test: CATA time intensity of the sweet sensation in water; assay type: in vivo, human
Protocol: Evaluation of thaumatin, sucrose, and his-tagged mycodulcein (HTS) was carried out using a CATA (click all that apply) time intensity of the sweet sensation of named analytes in water at 0.045 mg/mL for proteins and 10% sucrose. Methodology: Time Intensity Technique; Data collection software: EyeQuestion, responses recorded every 2.57 seconds; Scaling Method: a 15-point sweet scale, e.g., score 5=5% sucrose, score 10=10% sucrose; Evaluation Protocol: small volume sip, tilt and spit test. There were 3-6 panelists and 2 replicates. All samples were blinded and presented with randomized 3-digit codes. Training Strategies: An intense training on sweet scale over 6 weeks on 15-point sweet scale to confidently assign sweet values. Due to unique sweet behavioral patterns, it is necessary to train time intensity principles over 3 weeks. Samples were tasted with a stopwatch to note times and help reach a consensus. # of Panelists: 3-6, # of replications: 2. All samples were blinded and presented with randomized 3-digit codes. Statistical analysis: due to the small # of panelists, a statistical analysis cannot be performed.

[2] = nonlinear regression, read-out: EC50 (molar units)

## O=C(CO)C(O)C(O)C(O)CO (stereo not shown) [Allulose, allulose]
[1]; lemon/lime soda, allulose w/w / HTS mg/mL: control 14.3%/0.0, 50/50 7.14%/0.023
  Observations: Muted citrus flavor and sweetness intensity.
Sweet taste
  potency curve multiplier relative to sucrose: 0.7 ×

## OC[C@@H](O)[C@@H](O)CO [Erythritol, erythritol]
[1]; chocolate spread, erythritol w/w / HTS mg/mL: control 45%/0.0, 75/25 33.8%/0.008, 50/50 23%/0.023, 25/75 11.3%/0.064
  Observations: Brief initial sweetness, mouth cooling, cocoa
[1]; citric acid solution, erythritol w/w / HTS mg/mL: control 11.43%/0, 75/25 8.57%/0.007, 50/50 5.71%/0.015, 25/75 2.86%/0.035
  Observations: Reduced sour intensity compared to sucrose
[1]; lemon/lime soda, erythritol w/w / HTS mg/mL: control 13.30%/0.0, 75/25 9.31%/0.008, 50/50 6.90%/0.023, 25/75 3.10%/0.064
  Observations: Reduced citrus flavor intensity. Strong mouth
Perception of the flavor; erythritol 13.30% w/w
  Observations: More sour, bitter, mineral, mouth drying,
Sweet taste
  potency curve multiplier relative to sucrose: 0.7 ×

## C=C1C[C@@]23CC[C@H]4[C@@](C)(CCC[C@@]4(C)C(=O)O[C@@H]4O[C@H](CO)[C@@H](O)[C@H](O)[C@H]4O)[C@@H]2CC[C@]1(O[C@@H]1O[C@H](CO)[C@@H](O)[C@H](O[C@@H]2O[C@H](CO)[C@@H](O)[C@H](O)[C@H]2O)[C@H]1O[C@@H]1O[C@H](CO)[C@@H](O)[C@H](O)[C@H]1O)C3 [REB, rebaudioside A]
Sweet taste response
  Relative to Sucrose (mM): 857
  Relative to Sucrose (mg/ml): 300
  EC50: 41.1 µg/mL
Sweet taste response; [2]
  EC50: 42 µM

## OC[C@H]1O[C@@](CO)(O[C@H]2O[C@H](CO)[C@@H](O)[C@H](O)[C@H]2O)[C@@H](O)[C@@H]1O [SUC, sucrose]
[1]; almond milk, sucrose w/w / HTS mg/mL: control 4%/0.0, 75/25 3.0%/0.005, 50/50 2%/0.007, 25/75 1.0%/0.010
  Observations: Pleasantly sweetened almond milk, creamy
[1]; citric acid solution, sucrose w/w / HTS mg/mL: control 8%/0.0, 75/25 6%/0.007, 50/50 4%/0.015, 25/75 2%/0.035
  Observations: Reminiscent of sweet dessert and ice
[1]; lemon/lime soda, sucrose w/w / HTS mg/mL: control 10%/0.0, 75/25 7.5%/0.008, 50/50 5%/0.023, 25/75 2.5%/0.064
  Observations: Good, sweet to sour balance and pleasant

## OC[C@H]1O[C@H](O[C@]2(CCl)O[C@H](CCl)[C@@H](O)[C@@H]2O)[C@H](O)[C@@H](O)[C@H]1Cl [Sucralose, sucralose]
[1]; almond milk, sucralose w/w / HTS mg/mL: control 0.0053%/0.0, 75/25 0.0037%/0.005, 50/50 0.0023%/0.007, 25/75 0.0011%/0.010
  Observations: Pleasantly sweetened almond milk. Little
[1]; chocolate spread, sucralose w/w / HTS mg/mL: control 0.0387%/0.0, 75/25 0.0247%/0.008, 50/50 0.0096%/0.023, 25/75 0.0030%/0.064
  Observations: Reduced cocoa flavor intensity compared to sucrose
[1]; citric acid solution, sucralose w/w / HTS mg/mL: control 0.0170%/0.0, 75/25 0.0100%/0.007, 50/50 0.0053%/0.015, 25/75 0.0023%/0.035
  Observations: Intense initial sweetness that overpowers acidity.
[1]; lemon/lime soda, sucralose w/w / HTS mg/mL: control 0.0387%/0.0, 75/25 0.0247%/0.008, 50/50 0.0096%/0.023, 25/75 0.0030%/0.064
  Observations: Intense initial sourness. Strong sweet aftertaste.
Perception of the flavor; sucralose 0.0387% w/w
  Observations: Sweet linger, little flavor carry over

## brazzein (QDKCKKVYENYPVSKCQLANQCNYDCKLDKHARSGECFYDEKRNLQCICDYCEY; UniProt P56552 1-54, looked up) [sweet protein]
Sweet taste; background
  times sweeter than sucrose on a gram basis: 500 times

## monellin
Sweet taste; background
  times sweeter than sucrose on a molar basis: 100,000 times

## thaumatin [THN]
Sweet taste response
  Relative to Sucrose (mM): 120000
  Relative to Sucrose (mg/ml): 1865
  EC50: 6.6 µg/mL
Sweet taste response; [2]
  EC50: 0.3 µM
Sweet sensation; 0.045 mg/mL in water
  intensity when sucrose reaches threshold level: low-moderate intensity
Sweet sensation; 0.045 mg/mL in water vs 10% sucrose, longer peak time and more gradual/longer decline
  slope of time intensity curve: flatter slope
Sweet sensation; 0.045 mg/mL protein in water vs 10% sucrose
  maximum intensity (Imax) higher than sucrose: approximately 1 point on the 15 point scale
Sweet sensation; time intensity experiment
  potency, sweeter than sucrose on a molar basis: approximately 120,000 ×
  potency, sweeter than sucrose on a weight basis: ~3000 ×
Sweet taste; background
  times sweeter than sucrose on a gram basis: 3000 times
